Source: patent publication US20170050961A1, “IMIDAZO[1,2-A]PYRIDINES AS SOLUBLE GUANYLATE CYCLASE STIMULATORS FOR THE TREATMENT OF CARDIOVASCULAR DISEASES” (BAYER PHARMA AKTIENGESELLSCHAFT, priority 2014, published 2017)

These compounds were tested against T1, recombinant guanylate cyclase reporter cell line (Rattus norvegicus, UniProt P19686+P20595) (assay: Effect on a recombinant guanylate cyclase reporter cell line). Details: MEC=minimum effective concentration; in some cases as mean values for individual determinations.
T1 construct: expressed in transfected cells
T1 sequence (P19686 1-690): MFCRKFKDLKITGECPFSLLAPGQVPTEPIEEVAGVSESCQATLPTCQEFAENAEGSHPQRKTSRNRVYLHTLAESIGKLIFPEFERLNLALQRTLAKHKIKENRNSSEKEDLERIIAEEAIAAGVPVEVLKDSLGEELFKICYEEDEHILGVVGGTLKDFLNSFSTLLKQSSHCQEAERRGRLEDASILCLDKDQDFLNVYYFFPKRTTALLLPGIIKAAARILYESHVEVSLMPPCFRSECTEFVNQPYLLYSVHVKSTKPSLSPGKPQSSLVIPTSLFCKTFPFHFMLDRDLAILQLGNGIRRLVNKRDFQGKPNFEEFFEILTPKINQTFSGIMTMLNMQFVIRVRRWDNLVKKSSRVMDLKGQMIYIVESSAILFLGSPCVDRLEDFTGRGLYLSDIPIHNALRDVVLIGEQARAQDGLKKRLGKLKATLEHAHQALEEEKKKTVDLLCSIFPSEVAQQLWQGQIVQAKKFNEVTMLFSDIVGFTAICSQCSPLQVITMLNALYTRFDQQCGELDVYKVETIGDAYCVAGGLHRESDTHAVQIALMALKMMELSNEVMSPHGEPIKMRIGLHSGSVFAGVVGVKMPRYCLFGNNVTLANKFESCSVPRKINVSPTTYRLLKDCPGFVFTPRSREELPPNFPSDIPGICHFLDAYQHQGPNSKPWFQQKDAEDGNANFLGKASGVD
T1 sequence (P20595 1-619): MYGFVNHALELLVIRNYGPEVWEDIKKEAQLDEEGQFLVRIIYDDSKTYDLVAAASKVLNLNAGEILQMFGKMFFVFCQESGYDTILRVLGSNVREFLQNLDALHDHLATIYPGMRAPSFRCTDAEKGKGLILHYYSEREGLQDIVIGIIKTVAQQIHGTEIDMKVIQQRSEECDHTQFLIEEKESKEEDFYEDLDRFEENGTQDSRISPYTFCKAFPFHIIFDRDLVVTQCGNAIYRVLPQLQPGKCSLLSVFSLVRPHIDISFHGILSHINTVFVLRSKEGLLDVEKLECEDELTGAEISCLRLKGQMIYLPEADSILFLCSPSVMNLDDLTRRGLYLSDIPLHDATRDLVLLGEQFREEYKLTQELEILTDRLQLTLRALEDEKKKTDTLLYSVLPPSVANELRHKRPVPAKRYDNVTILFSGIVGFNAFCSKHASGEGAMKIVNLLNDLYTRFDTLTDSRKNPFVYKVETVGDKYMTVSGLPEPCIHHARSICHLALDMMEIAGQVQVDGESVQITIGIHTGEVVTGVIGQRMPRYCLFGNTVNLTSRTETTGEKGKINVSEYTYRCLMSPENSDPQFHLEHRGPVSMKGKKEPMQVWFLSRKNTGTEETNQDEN
Format: cell-based
Experimental: B-2. Effect on a Recombinant Guanylate Cyclase Reporter Cell Line
The cellular activity of the compounds of the invention is determined using a recombinant guanylate cyclase reporter cell line, as described in F. Wunder et al., Anal Biochem. 339, 104-112 (2005).
Representative MEC values (MEC=minimum effective concentration) for the compounds of the invention are shown in the table below (in some cases as mean values for individual determinations): […]

Row | SMILES | MEC [µM]
1 | Cc1cc(OCc2c(F)cccc2F)c2nc(C(C)C)c(C(=O)NCC(C)(N)CCC(F)(F)F)n2c1 (single isomer, unassigned; enantiomer b) [Example 18, ent-N-(2-Amino-5,5,5-trifluoro-2-methylpentyl)-8-[(2,6-difluorobenzyl)oxy]-2-isopropyl-6-methylimidazo[1,2-a]pyridine-3-carboxamide (enantiomer B)] | 2.0
2 | Cc1cc(OCc2c(F)cccc2F)c2nc(Cl)c(C(=O)NCC(C)(N)CCC(F)(F)F)n2c1 (single isomer, unassigned; enantiomer b) [Example 19, ent-N-(2-Amino-5,5,5-trifluoro-2-methylpentyl)-2-chloro-8-[(2,6-difluorobenzyl)oxy]-6-methylimidazo[1,2-a]pyridine-3-carboxamide (enantiomer B)] | 0.07
3 | CCC(C)(N)CNC(=O)c1c(Cl)nc2c(OCc3c(F)cccc3F)cc(C)cn12 (single isomer, unassigned; enantiomer b) [Example 22, ent-N-(2-Amino-2-methylbutyl)-2-chloro-8-[(2,6-difluorobenzyl)oxy]-6-methylimidazo[1,2-a]pyridine-3-carboxamide (enantiomer B)] | 0.1
4 | CCCC(C)(N)CNC(=O)c1c(Cl)nc2c(OCc3c(F)cccc3F)cc(C)cn12 (single isomer, unassigned; enantiomer b) [Example 25, ent-N-(2-Amino-2-methylpentyl)-2-chloro-8-[(2,6-difluorobenzyl)oxy]-6-methylimidazo[1,2-a]pyridine-3-carboxamide (enantiomer B)] | 0.3
5 | CCC(C)(N)CNC(=O)c1c(OC)nc2c(OCc3c(F)cccc3F)cc(C)cn12 (single isomer, unassigned; enantiomer b) [Example 26, ent-N-(2-Amino-2-methylbutyl)-8-[(2,6-difluorobenzyl)oxy]-2-methoxy-6-methylimidazo[1,2-a]pyridine-3-carboxamide (enantiomer B)] | 2.0
6 | COc1nc2c(OCc3c(F)cccc3F)cc(C)cn2c1C(=O)NCC(C)(N)CCC(F)(F)F (single isomer, unassigned; enantiomer b) [Example 27, ent-N-(2-Amino-5,5,5-trifluoro-2-methylpentyl)-8-[(2,6-difluorobenzyl)oxy]-2-methoxy-6-methylimidazo[1,2-a]pyridine-3-carboxamide (enantiomer B)] | 3.0
7 | Cc1cc(OCc2c(F)cccc2F)c2nc(Cl)c(C(=O)NC(CCC(F)(F)C(F)(F)F)C(C)(C)O)n2c1 (single isomer, unassigned; ent-2) [Example 28, ent-2-Chloro-8-[(2,6-difluorobenzyl)oxy]-6-methyl-N-(6,6,7,7,7-pentafluoro-2-hydroxy-2-methylheptan-3-yl)imidazo[1,2-a]pyridine-3-carboxamide (enantiomer A)] | 0.03
8 | CCCC[C@H](CO)NC(=O)c1c(OC)nc2c(OCc3c(F)cccc3F)cc(C)cn12 [Example 29, 8-[(2,6-Difluorobenzyl)oxy]-N-[(2R)-1-hydroxyhexan-2-yl]-2-methoxy-6-methylmidazo[1,2-a]pyridine-3-carboxamide] | 0.55
